Reference: patent publication US5328906A, “0-(3-amino-2-hydroxypropyl)-hydroximic acid halides and process for preparing the same” (Biorex Kutato-Fejleszto KFT, priority 1993, dated 1994)

Assays:
[1] = acute toxicity LD50 on Wistar rats; details: rat, in vivo, iv
diabetic aorta = assay: beta-blocking effect on diabetic (Streptosotocin treated) rat aorta spiral and/or ring preparate, noradrenalin contractions; details: aorta spiral of diabetic animals treated with Streptosotocin
Procedure: (§1) The beta-blocking effect of the compounds according to the present invention was tested on rat aorta spiral and/or ring preparate <J. Pharmacol. Exp. Therap. 158, 531 (1967)>. The experimental diabetes was induced with Streptosotocin <2-(3-nitroso-3-methylureido)-2-deoxy-D-glucose>. The reaction was evaluated as positive when the alpha stimulating effect of the noradrenalin on the control preparate, i.e. that having not been treated with Streptosotocin, was not influenced, but protected on the diabetic aorta. In the tests carried out with the compounds according to the present invention a general selective effect occurred, manifesting in case of diabetic tests in a strong, in case of normal tests in the absence of or in the presence of only a slight beta-blocking effect.
Experiments were carried out to study whether on the aorta spiral preparates of diabetic animals treated with Streptosotocin the Inderal protects the contractions induced by noradrenalin. As control, animals previously not treated with Streptosotocin were used. The results obtained essentially conformed to those known from the literature <Amer. […] (Endocrinology. Vol. 93, No. 3, September 1973). […]

[2] = system: control preparate (rat aorta); assay: beta-blocking effect on control (not Streptosotocin treated) rat aorta spiral and/or ring preparate, noradrenalin contractions; details: aorta spiral of animals not treated with Streptosotocin (normal tests)
Procedure: as §1
Experiments were carried out to study whether on the aorta spiral preparates of diabetic animals treated with Streptosotocin the Inderal protects the contractions induced by noradrenalin. As control, animals previously not treated with Streptosotocin were used. The results obtained essentially conformed to those known from the literature <Amer. […] (Endocrinology. Vol. 93, No. 3, September 1973).

OC(CON=C(Cl)c1cccnc1)CN1CCCCC1 (stereo not drawn) [Example 5, O-(3-piperidino-2-hydroxy-propyl)-3-piridyl-hydroximic acid chloride]
LD50 [1]: 110 mg/kg

CC(C)NCC(O)COc1cccc2ccccc12 (stereo not drawn) [Inderal, 1-isopropylamino-3-(naphtyloxy)-propan-2-ol]
protection against the alpha stimulating effect (contractions) of noradrenalin (diabetic aorta): the alpha stimulating effect of noradrenalin was protected by the Inderal in diabetic tests | protection against the alpha stimulating effect (contractions) of noradrenalin [2]: not in the normal tests
